Test results: patent US20250241994A1, “PHARMACEUTICAL FORMULATION OF GLUCAGON-LIKE PEPTIDE -1 RECEPTOR AGONIST PEPTIDE FOR SUBLINGUAL DELIVERY” (Immunwork Inc., priority 2024, published 2025)
In brackets after ≈: the same amount, converted by molar mass.

Legend:
[1] = Estimated bioavailability of sublingual relative to subcutaneous delivery (blood glucose lowering at 24 h); parameters: species or system db/db mice; conditions: male, db/db, mouse, in vivo, bioavailability of sublingually administered GLP-1 RA-P relative to subcutaneous administration
Description: The term “bioavailability of GLP-1 RA-P” as used herein refers to an estimated bioavailability of a sublingually administered GLP-1 RA-P in relative to that achieved by subcutaneous injection. Accordingly, the “bioavailability of GLP-1 RA-P” is expressed as a percentage of bioavailability achieves by subcutaneous injected GLP-1 RA-P. To estimate the bioavailability of sublingual delivery in relative to subcutaneous delivery in db/db mice, the blood glucose-lowering effects of two sublingual doses of varying amounts were compared with one subcutaneous dose of a specific amount at the 24-hour time point (just before the third sublingual dose). […] By comparing the combined effect of the two sublingual doses to the subcutaneous dose, the relative bioavailability is estimated.
Further, blood glucose levels in db/db mice are highly sensitive to changes in GLP-1 RA-P drug concentrations, making glucose measurements a reliable indicator of the drug's availability in the bloodstream. In the experiments described in this study, the db/db mouse model was used to evaluate the efficiency of sublingual drug delivery, estimate bioavailability via sublingual versus subcutaneous administration, and examine the cumulative effects of repeated sublingual dosing.
For these experiments, 30 male db/db mice, aged 6 weeks and weighing 35-40 g, were used. […]

[2] = semaglutide: based on the known highest dosage form for subcutaneous injection; cited from earlier work

With `CC[C@H](C)[C@H](NC(=O)[C@H](CC(C)C)NC(=O)[C@H](Cc1c[nH]c2ccccc12)NC(=O)[C@H](CCC(N)=O)NC(=O)[C@@H](NC(=O)[C@H](Cc1ccccc1)NC(=O)[C@H](C)NC(=O)[C@H](CCCCNC(=O)COCCOCCNC(=O)COCCOCCNC(=O)CC[C@H](NC(=O)CCCCCCCCCCCCCCCCCCC(=O)O)C(=O)O)NC(=O)[C@H](CCC(N)=O)NC(=O)[C@H](C)NC(=O)[C@@H](NC(=O)[C@H](CCCCN)NC(=O)[C@H](CC(=O)O)NC(=O)[C@H](CC(C)C)NC(=O)C(C)(C)NC(=O)[C@@H](NC(=O)[C@H](CO)NC(=O)[C@H](Cc1ccc(O)cc1)NC(=O)[C@H](CC(=O)O)NC(=O)[C@H](CO)NC(=O)[C@@H](NC(=O)[C@H](Cc1ccccc1)NC(=O)[C@@H](NC(=O)CNC(=O)[C@H](CCC(=O)O)NC(=O)C(C)(C)NC(=O)[C@@H](N)Cc1ccc(O)cc1)[C@@H](C)O)[C@@H](C)O)[C@@H](C)CC)[C@@H](C)CC)C(C)C)C(=O)N[C@@H](C)C(=O)NCC(=O)NCC(=O)N1CCC[C@H]1C(=O)N[C@@H](CO)C(=O)N[C@@H](CO)C(=O)NCC(=O)N[C@@H](C)C(=O)N1CCC[C@H]1C(=O)N1CCC[C@H]1C(=O)N1CCC[C@H]1C(=O)N[C@@H](CO)C(N)=O` [tirzepatide] the bioavailability at 24 h [1] was 10%.
In the case of `CC[C@H](C)[C@H](NC(=O)[C@H](Cc1ccccc1)NC(=O)[C@H](CCC(=O)O)NC(=O)[C@H](CCCCNC(=O)COCCOCCNC(=O)COCCOCCNC(=O)CC[C@H](NC(=O)CCCCCCCCCCCCCCCCC(=O)O)C(=O)O)NC(=O)[C@H](C)NC(=O)[C@H](C)NC(=O)[C@H](CCC(N)=O)NC(=O)CNC(=O)[C@H](CCC(=O)O)NC(=O)[C@H](CC(C)C)NC(=O)[C@H](Cc1ccc(O)cc1)NC(=O)[C@H](CO)NC(=O)[C@H](CO)NC(=O)[C@@H](NC(=O)[C@H](CC(=O)O)NC(=O)[C@H](CO)NC(=O)[C@@H](NC(=O)[C@H](Cc1ccccc1)NC(=O)[C@@H](NC(=O)CNC(=O)[C@H](CCC(=O)O)NC(=O)C(C)(C)NC(=O)[C@@H](N)Cc1cnc[nH]1)[C@@H](C)O)[C@@H](C)O)C(C)C)C(=O)N[C@@H](C)C(=O)N[C@@H](Cc1c[nH]c2ccccc12)C(=O)N[C@@H](CC(C)C)C(=O)N[C@H](C(=O)N[C@@H](CCCNC(=N)N)C(=O)NCC(=O)N[C@@H](CCCNC(=N)N)C(=O)NCC(=O)O)C(C)C` [semaglutide], the “solubility in aqueous buffer” value [2] is given as 3200 µg/mL (≈ 778 µM).
